Data on two compounds can be found in PMC10418113 (bioRxiv, 2023).

Assay [1] has as its target T1, DLD (E3 subunit of purified porcine PDHC) (Sus scrofa, UniProt P09623).
T1 sequence (P09623 36-509): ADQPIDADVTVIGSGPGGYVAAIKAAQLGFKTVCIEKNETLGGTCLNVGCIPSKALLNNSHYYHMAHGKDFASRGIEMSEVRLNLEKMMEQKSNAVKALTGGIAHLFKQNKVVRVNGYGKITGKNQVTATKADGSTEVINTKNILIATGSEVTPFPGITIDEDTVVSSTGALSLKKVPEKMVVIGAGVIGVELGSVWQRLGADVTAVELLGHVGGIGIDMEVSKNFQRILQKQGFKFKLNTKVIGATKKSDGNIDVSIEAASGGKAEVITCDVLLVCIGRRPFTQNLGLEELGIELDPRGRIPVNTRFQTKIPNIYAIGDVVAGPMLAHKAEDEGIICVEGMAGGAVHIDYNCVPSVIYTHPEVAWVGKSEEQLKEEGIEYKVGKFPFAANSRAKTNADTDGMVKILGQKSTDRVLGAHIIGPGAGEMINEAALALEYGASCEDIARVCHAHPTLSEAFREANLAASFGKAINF
The experiment in a line: diaphorase activity, NBT-formazan at […] nm and in-gel. Type of assay: biochemical. Conditions: 0.1 mg/mL NADH, 0.2 mg/mL NBT, 50 mM potassium phosphate pH 7.0.

A further assay has as its target BCKDC (E2 subunit DBT) (Mus musculus, UniProt P53395). The experiment in a line: BCKDC activity of matrix lysate after preincubation, isovaleryl-CoA by LCMS. Type of assay: biochemical. Conditions: read-out: % inhibition at 0.1 μM.

Some results are limits rather than exact numbers.

BCKDC (E2 subunit DBT), sequence (P53395 62-482): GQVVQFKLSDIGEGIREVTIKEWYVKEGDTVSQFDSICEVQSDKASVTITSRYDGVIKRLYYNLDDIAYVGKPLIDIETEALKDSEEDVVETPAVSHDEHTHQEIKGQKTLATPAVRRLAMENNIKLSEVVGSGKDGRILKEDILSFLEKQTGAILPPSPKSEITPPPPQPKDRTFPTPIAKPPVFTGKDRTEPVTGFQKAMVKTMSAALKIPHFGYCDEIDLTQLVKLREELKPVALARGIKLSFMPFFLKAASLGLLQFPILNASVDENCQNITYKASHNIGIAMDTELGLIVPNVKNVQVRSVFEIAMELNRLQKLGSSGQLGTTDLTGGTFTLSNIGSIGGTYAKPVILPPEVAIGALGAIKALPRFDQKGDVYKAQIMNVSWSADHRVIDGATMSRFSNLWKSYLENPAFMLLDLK
BCKDC (E2 subunit DBT), sequence (P50136 43-442 partner): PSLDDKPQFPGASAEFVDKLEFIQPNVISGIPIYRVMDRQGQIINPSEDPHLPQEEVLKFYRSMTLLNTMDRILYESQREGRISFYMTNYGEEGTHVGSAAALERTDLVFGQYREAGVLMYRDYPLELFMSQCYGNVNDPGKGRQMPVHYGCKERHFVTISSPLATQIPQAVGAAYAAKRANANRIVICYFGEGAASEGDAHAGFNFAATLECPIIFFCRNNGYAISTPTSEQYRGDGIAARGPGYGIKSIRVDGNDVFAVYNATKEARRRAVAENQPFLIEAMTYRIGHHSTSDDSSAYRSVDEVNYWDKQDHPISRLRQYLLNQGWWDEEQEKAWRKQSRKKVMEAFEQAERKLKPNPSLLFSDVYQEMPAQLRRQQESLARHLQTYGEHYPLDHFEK
BCKDC (E2 subunit DBT), sequence (Q6P3A8 49-390 partner): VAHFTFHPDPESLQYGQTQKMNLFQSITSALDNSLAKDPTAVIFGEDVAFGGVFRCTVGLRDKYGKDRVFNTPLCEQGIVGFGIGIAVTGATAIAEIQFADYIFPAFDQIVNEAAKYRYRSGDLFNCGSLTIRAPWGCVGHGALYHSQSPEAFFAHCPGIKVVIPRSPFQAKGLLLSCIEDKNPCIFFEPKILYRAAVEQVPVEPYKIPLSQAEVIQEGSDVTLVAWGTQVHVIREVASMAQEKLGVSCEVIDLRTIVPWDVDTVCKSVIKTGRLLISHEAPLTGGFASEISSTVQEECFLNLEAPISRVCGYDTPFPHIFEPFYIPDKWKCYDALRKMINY
BCKDC (E2 subunit DBT), sequence (O08749 36-509 partner): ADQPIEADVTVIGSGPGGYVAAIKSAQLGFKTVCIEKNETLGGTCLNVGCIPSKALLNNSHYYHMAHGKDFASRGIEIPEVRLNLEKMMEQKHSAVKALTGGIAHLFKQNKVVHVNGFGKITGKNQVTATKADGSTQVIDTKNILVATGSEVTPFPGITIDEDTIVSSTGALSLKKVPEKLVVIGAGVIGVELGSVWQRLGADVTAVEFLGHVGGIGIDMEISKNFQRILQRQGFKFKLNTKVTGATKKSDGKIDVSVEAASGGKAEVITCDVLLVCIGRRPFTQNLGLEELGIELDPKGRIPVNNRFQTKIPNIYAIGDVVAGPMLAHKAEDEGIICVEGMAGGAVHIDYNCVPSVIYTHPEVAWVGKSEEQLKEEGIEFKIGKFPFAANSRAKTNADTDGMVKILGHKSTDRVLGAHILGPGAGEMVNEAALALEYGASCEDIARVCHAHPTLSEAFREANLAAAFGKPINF

As to `NC(=O)C1=CN([C@@H]2O[C@H](COP(=O)(O)OP(=O)(O)OC[C@H]3O[C@@H](n4cnc5c(N)ncnc54)[C@H](O)[C@@H]3O)[C@@H](O)[C@H]2O)C=CC1` [NADH], the “diaphorase activity, NBT-formazan at 568 nm and in-gel” value in assay [1] is reported as “As a blank control, the same amount of mitochondria lysate was mixed with assay buffer without NADH”.
As for `CC(C)(COP(=O)(O)OP(=O)(O)OC[C@H]1O[C@@H](n2cnc3c(N)ncnc32)[C@H](O)[C@@H]1OP(=O)(O)O)[C@@H](O)C(=O)NCCC(=O)NCCSN=O` [SNO-CoA], the inhibition at 0.1 µM on BCKDC (E2 subunit DBT) is over 50%.

A word on the inhibition: it is the change of the read-out against control, counted positive when it falls.
